We go through 7 compounds from US8329643B2, “PIMAP39 modulates LPS-induced inflammatory response” (Trustees of Boston University, priority 2008, dated 2012).

In data set [1] the test system is LPS-induced TNF-α production. Description: Effects of inhibitors on LPS-induced TNF-α production in THP-1 cells (ELISA). Format: cell-based, human. The following applies: for LPS-induced TNF-α expression compared to LPS alone / TNF-α levels within 8-10 hrs post treatment: THP-1 cells; for LPS-induced TNF-α expression compared to LPS alone: 0.1 μg/ml E. coli LPS, 10 μM sodium orthovanadate, 20 μM AG490, U0126 or SB203580, ELISA 2-16 hours; for TNF-α levels within 8-10 hrs post treatment: LPS + inhibitor, ELISA. The procedure:
THP-1 cells were differentiated with 100 nM phorbol-12-myristate-13-acetate (PMA) and seeded (1×10^5) in 6-well plates overnight. After washing by PBS, cells were stimulated with 0.1 mg/ml E. coli LPS for 3 hrs. The cells were washed with PBS again and treated with various inhibitors. 10 μM Sodium orthovandate, 20μM AG490, 20μM U0126, 20μM SB203580 or untreated as control. 200μl of supernatant was collected for ELISA assay (A) from each treatment at 2, 4, 6, 8, 12, 14 and 16 hours and its corresponding mRNA was prepared for RT-PCR (B) by first extracting total RNA from the treated cells using QIAQuick™ RNA miniprep (Qiagen). 1μg of each RNA was used to generate cDNA with Platinum® Quantitative RT-PCR ThermoScript™ One-Step System kit (Invitrogen). 10 ng pf cDNA from each test was PCRed using PTP4A3 forward primer 5′-[…]-3′ [SEQ ID NO: 2] and reverse primer 5′-[…]-3′ [SEQ ID NO: 3]. Another 1 ng of cDNA was PCRed using GAPDH primer pairs (Invitrogen) as control. Densitometric analysis (C) of RT-PCR (B) with intensity values normalized to GAPDH and using 0 hour value as reference intensity.
AG490, U0126 and SB203580 were purchased from EMD Biosciences (San Diego, Calif.). Sodium orthovanadate was purchased from Sigma-Aldrich (Saint Louis, Mo.). Human THP-1 cells were treated with 10 μM Sodium orthovanadate (PTP4A3 inhibitor [Greenwel, P, et al., (1995) Tyrosine dephosphorylation of nuclear proteins mimics transforming growth factor beta 1 stimulation of alpha 2(1) collagen gene expression. Mol Cell Biol 15:6813-6819], 20 μM AG490 (JAK inhibitor [Saudemont, A, et al., (2007) Dormant tumor cells develop cross-resistance to apoptosis induced by CTLs or imatinib mesylate via methylation of suppressor of cytokine signaling 1. Cancer Res 67:4491-4498], 20 μM U0126 (ERK inhibitor [Yang, L, et al., (2007) Inhibition of epidermal growth factor receptor signaling elevates 15-hydroxyprostaglandin dehydrogenase in non-small-cell lung cancer. Cancer Res 67:5587-5593], 20 μM SB203580 (p38 MAPK inhibitor [Hsieh, Y H, et al., (2007) p38 mitogen-activated protein kinase pathway is involved in protein kinase Calpha-regulated invasion in human hepatocellular carcinoma cells. Cancer Res 67:4320-4327].
For primary mouse macrophages or THP-1, cells were seeded (2×10^4 cells in 96-well plate or 2×10^6 cells in six-well plate) and were stimulated with […] of E. coli LPS (Sigma) and/or transiently transfected with […] of DNA using Lipofectamine™ Reagent and/or introduced with 500 ng/ml peptide using Chariot™ kit (ActiveMotif; Carlsbad, Calif.) prior to LPS treatment, then incubated at 37° C., 5% CO2 overnight. Culture supernatants were harvested and centrifuged at 1,500×g to remove cell debris. Concentrations of mouse or human TNF-α in the supernatant of each well of treated and untreated control cells were measured by ELISA (Abraxis, Warminster, Pa.). ELISA immunoreactivity was quantified by using a microplate reader (Bio-Rad, Hercules, Calif.) and graphed.
To investigate a link between PTP4A3 and the LPS signaling cascade, HP-1 cells were co-treated with 0.1 μg/ml E. coli LPS and/or various inhibitors, sodium orthovanadate (PTP4A3 inhibitor), AG490 (JAK inhibitor), U0126 (ERK inhibitor), SB203580 (p38 MAPK inhibitor) or untreated as control. The supernatants from cell culture at each time point (2, 4, 6, 8, 10, 12, 14 and 16 hours post stimulation) were collected and the potential role of these inhibitors on TNF-α production was measured by ELISA (Abraxis; […].). In parallel mRNA from each experimental group was prepared and quantified by RT-PCR.
A general note: An ELISA detects its analyte on a solid surface through an enzyme-linked reagent.

In another data set the test system is PTP4A3 gene expression. Briefly: PTP4A3 expression by RT-PCR in LPS plus inhibitor treated THP-1 cells. Type of data set: cell-based, human. The following applies: time course. The procedure: THP-1 cells were differentiated with 100 nM phorbol-12-myristate-13-acetate (PMA) and seeded (1×10^5) in 6-well plates overnight. After washing by PBS, cells were stimulated with 0.1 mg/ml E. coli LPS for 3 hrs. The cells were washed with PBS again and treated with various inhibitors. 10 μM Sodium orthovandate, 20μM AG490, 20μM U0126, 20μM SB203580 or untreated as control. 200μl of supernatant was collected for ELISA assay (A) from each treatment at 2, 4, 6, 8, 12, 14 and 16 hours and its corresponding mRNA was prepared for RT-PCR (B) by first extracting total RNA from the treated cells using QIAQuick™ RNA miniprep (Qiagen). 1μg of each RNA was used to generate cDNA with Platinum® Quantitative RT-PCR ThermoScript™ One-Step System kit (Invitrogen). 10 ng pf cDNA from each test was PCRed using PTP4A3 forward primer 5′-ATGGCTCGGATGAACCGC-3′ [SEQ ID NO: 2] and reverse primer 5′-CTACATAACGCAGCACCG-3′ [SEQ ID NO: 3]. Another 1 ng of cDNA was PCRed using GAPDH primer pairs (Invitrogen) as control. Densitometric analysis (C) of RT-PCR (B) with intensity values normalized to GAPDH and using 0 hour value as reference intensity.
The PCR or RT-PCR was performed following manufacturer's instructions.

The subject of data set [2] is LPS-induced TNF-α expression. As to conditions: monocyte cells, 'current studies'; cited from earlier work.
For data set [3], the system named is p38α/LITAF signaling pathway. Briefly: Western blot of p38α/LITAF signaling pathway in LPS-treated THP-1 cells after PTP4A3 overexpression or RNAi. Format: cell-based, human. Here is the method:
THP-1 cells (1×10^5) were stimulated with 0.1 μg/ml E. coli LPS for 3 hours. The cells were washed and transiently transfected with DNAs above using Lipofectamine™ reagent (Invetrogen). Treated cells were then incubated overnight. The supernatants from each culture were measured by ELISA. Elisa immunoreactivity was quantified using a microplate reader (Bio-Rad) and graphed (A). […] THP-1 cells (B) or mouse macrophage cells (C) were stimulated with 0.1 μg/ml E. coli LPS alone for 3 hours and then transfected with 1 μg/ml pcHAPTP DNA (B & C, lane 3) or 1 μg/ml pcDNA (B & C, lane 2) and untreated (B & C, lane 1) as controls by Lipofectamine reagent. Treated cells were incubated overnight and lysed. […]
THP-1 cells (5×10^6) matured by treatment with 200 nM phorbol 12-myristate 13-acetate (Sigma) were treated or untreated with 0.1 μg/ml LPS (Sigma) for 3 h and washed with PBS. […] The protein lysate from the treated or untreated cells were analyzed by Western blotting. […]
LITAF remains inactivated in the absence of p38 MAP kinase (p38α) and the inhibition of p38α down-regulates cytokines such as TNF-α [Tang, X, et al., (2006) LPS-induced TNF-alpha factor (LITAF)-deficient mice express reduced LPS-induced cytokine: Evidence for LITAF-dependent LPS signaling pathways. […] The lysate protein from each treated cell culture was detected by Western blot analysis. […]
On the technique in general: A western blot detects proteins with antibodies after separation by electrophoresis.

For the compound `N#C/C(=C/c1ccc(O)c(O)c1)C(=O)NCc1ccccc1` [AG490], in data set [1], the “LPS-induced TNF-α expression compared to LPS alone” value was “did not result in a significant decrease” and the “TNF-α levels within 8-10 hrs post treatment” value is “did not increase at all”. For the same compound, the “PTP4A3 expression (RT-PCR)” value in the data set with PTP4A3 gene expression is on record as “at a maximum between 8-10 hrs”.

Regarding `CO[C@H]1[C@@H](OC)C[C@H](C)[C@@H](OC)C2=CC(=O)C=C(NC(=O)/C(C)=C/C=C\[C@H](OC)[C@@H](OC(N)=O)/C(C)=C/[C@@H]1C)C2=O` [Herbimycin-A], the “LPS-induced TNF-α expression at protein and mRNA levels” value in data set [2] was “markedly attenuated”.

Take `C[S+]([O-])c1ccc(-c2nc(-c3ccncc3)c(-c3ccc(F)cc3)[nH]2)cc1` (centres unmarked) [SB203580]: the “LPS-induced TNF-α expression compared to LPS alone” value in data set [1] is on record as “significant decrease”. The “PTP4A3 expression (RT-PCR)” value with PTP4A3 gene expression is “at a maximum between 8-10 hrs”.

Take `N#CC(=C(/N)Sc1ccccc1N)/C(C#N)=C(\N)Sc1ccccc1N` [U0126]: in data set [1], the “LPS-induced TNF-α expression compared to LPS alone” value is “did not result in a significant decrease” and the “TNF-α levels within 8-10 hrs post treatment” value is “did not increase at all”. In addition, the “PTP4A3 expression (RT-PCR)” value with PTP4A3 gene expression is “at a maximum between 8-10 hrs”.

Turning to `O=c1c(-c2ccc(O)cc2)coc2cc(O)cc(O)c12` [genistein], the “LPS-induced TNF-α expression at protein and mRNA levels” value in data set [2] is reported as “markedly attenuated”.

On to `[Na+].[Na+].[Na+].[O]=[V]([O-])([O-])[O-]` [sodium orthovanadate, Sodium orthovanadate], for which the “LPS-induced expression of TNF-α on co-treatment” value in data set [1] (LPS and orthovanadate, FIG. 1, 8-16 hrs) is “augmented”. Besides, the “LPS-induced TNF-α expression compared to LPS alone” value in data set [1] is given as “did not result in a significant decrease”. In data set [1] (on average, at the 8 hr mark and beyond, LPS + 10 μM sodium orthovanadate), the “concentration of secreted TNF-α higher than LPS only treated cells” value is reported as 20%. The “PTP4A3 expression (RT-PCR)” value with PTP4A3 gene expression is reported as “No such maximum occurred”. In addition, the “LPS-induced TNF-α expression at protein and mRNA levels” value in data set [2] is given as “further enhanced”.

“GUACGAGGACGCCAUCCAGUU & AACUGGAUGGCGUCCUCGUAC (listed as RNA, chemistry not given here) [RNAi, small interfering RNA (siRNA) specific for PTP4A3]”: the “p38α phosphorylation in response to LPS” value in data set [3] (FIG. 4D, 100 nM siRNA or 0.5 mg pcHAPTP) is “significantly increased”. For the same compound, the “ability of overexpressed PTP4A3 to dephosphorylate p38” value in data set [3] (pcHAPTP plus RNAi, FIG. 4D lane 5) is reported as “suppressed”.
